“Also recorded” adds a separate entry of the source.
Experiments:
[1] = test system: SU-DIPGVI; experiment: Ki67 immunofluorescence proliferation assay; assay type: cell-based, human; conditions: pre-treatment 26.5, *p < 0.05
Description: (§1) Cell proliferation and apoptosis were assessed by immunofluorescence for Ki67 and TUNEL assays. After staining, Ki67 and TUNEL positive cells were manually counted to calculate a percentage of positive nuclei (see, e.g., FIG. 33). The pharmacokinetic profile of MI-2-2 was assessed by treating animals with 30 mg/kg and 60 mg/kg IP MI-2-2. Tail vein blood sampling and extraction of the pons was performed in animals at multiple time points and samples analyzed by LC-MS to generate a curve.

[2] = test system: Glioblastoma 040114; experiment: Ki67 immunofluorescence proliferation assay; assay type: cell-based, human; conditions: pre-treatment 56.0, *p < 0.05
Description: as §1

[3] = test system: SU-DIPGIV; experiment: Ki67 immunofluorescence proliferation assay; assay type: cell-based, human; conditions: pre-treatment 34.9, *p < 0.05
Description: as §1

[4] = test system: Glioblastoma 040811; experiment: Ki67 immunofluorescence proliferation assay; assay type: cell-based, human; conditions: pre-treatment 28.4
Description: as §1

[5] = test system: Glioblastoma 070909; experiment: Ki67 immunofluorescence proliferation assay; assay type: cell-based, human; conditions: pre-treatment 18.2, *p < 0.05
Description: as §1

[6] = test system: Fibroblasts; experiment: Ki67 immunofluorescence proliferation assay; assay type: cell-based, human; conditions: pre-treatment 29.6
Description: as §1

[7] = test system: Glioblastoma 050715; experiment: Ki67 immunofluorescence proliferation assay; assay type: cell-based, human; conditions: pre-treatment 11.9
Description: as §1

[8] = test system: NPC; experiment: Ki67 immunofluorescence proliferation assay; assay type: cell-based, human; conditions: pre-treatment 10.6
Description: as §1

[9] = test system: Astrocytes; experiment: Ki67 immunofluorescence proliferation assay; assay type: cell-based, human; conditions: pre-treatment 2.4
Description: as §1

[10] = test system: Glioblastoma 030613; experiment: Ki67 immunofluorescence proliferation assay; assay type: cell-based, human; conditions: pre-treatment 30.4, *p < 0.05
Description: as §1

[11] = test system: normal neural precursors (NPC); experiment: MI-2-2 dose-response curve, cell survival (FIG. 19H); assay type: cell-based, human
Description: (§2) FIG. 19 depicts the chemical screen of the transformed NPCs. FIG. 19A is a schematic representation of the screening strategy. A mixture of GFP-labeled normal NPCs and RFP-labeled P5K cells in a 1:3 ratio were plated into 96-well plates and each compound in the library was added in a 2-fold serial dilution for a total of 8 doses. […] Error bars indicate S.D. (n=4). […] Intracranial growth of Luciferase-labeled P5K cells was measured by quantitative in vivo bioluminescence imaging. Values indicate fold change of luminescence before and after the treatment. […] Cells were treated with MI-2 for 7 days and the number of viable cells was counted by trypan-blue staining (n=4). Error bars in panels C-D, E, F and G indicate mean±S.D. *, p<0.05; **, p<0.01. NS, Not Significant. FIG. 19H represents a dose-response curve of MI-2-2.
(§3) The normal neural precursors are being analyzed for proof of maintained phenotype and differentiation ability, in further support of the safety profile of the drug used.

[12] = test system: fibroblasts (MRCS); experiment: as above; assay type: cell-based, human
Description: as §2, §3

[13] = test system: DIPG patient-derived tumor line; experiment: as above; assay type: cell-based, human
Description: as §2, §3

[14] = test system: SU-DIPGVI; experiment: TUNEL apoptosis assay; assay type: cell-based, human; conditions: pre-treatment 14.3
Description: as §1

[15] = test system: SU-DIPGIV; experiment: TUNEL apoptosis assay; assay type: cell-based, human; conditions: pre-treatment 7.6
Description: as §1

[16] = test system: Fibroblasts; experiment: TUNEL apoptosis assay; assay type: cell-based, human; conditions: pre-treatment 0.4
Description: as §1

[17] = test system: NPC; experiment: TUNEL apoptosis assay; assay type: cell-based, human; conditions: pre-treatment 3.8
Description: as §1

[18] = test system: 040114 xenografts; experiment: GBM 040114 xenografts, bioluminescence imaging; assay type: in vivo, mice; conditions: 40 mg/kg BID, after three weeks
Description: (§4) DIPG and glioblastoma cell lines were used to generate xenografts in NSG immunocompromised mice for in vivo testing. All lines used for xenografting were transfected lentiviral vectors encoding firefly luciferase to enable bioluminescence imaging (BLI). For DIPG xenografts, 100,000 DIGIV or DIPGVI cells were stereotactically injected into the pons of cold anesthetized P6 pups by transcutaneous injection. For GBM xenografts, 500,000 cells (030613 and 040114) were injected stereotactically into the striatum of 6 week old mice anesthetized with ketamine/xylazine cocktail. […] BLI was performed every week during treatment.
(§5) BLI was performed using the IVIS Lumina II system. D-Luciferin (10 uL of 15 mg/mL solution was instilled by retro-orbital injection in mice under […] anesthesia and 5 minute exposures were collected. Fold change over baseline pre-randomization imaging was calculated.

[19] = test system: 042314; experiment: alamarBlue cell viability, 12 point dose response, seven days; assay type: cell-based, human; conditions: 042314, seven days
[20] = test system: SU-DIPGVI; experiment: as above; assay type: cell-based, human
Description: (§6) Sensitivity to MI-2-2 was assessed by a 12 point dose response curve calculated after seven days of drug exposure and alamarBlue cell viability assay. Multiple patient tumor-derived DIPG (DIPGIV, DIPGVI, MSK-1, Peds8) and Glioblastoma (070909, 030613, 050715, 042315, 040811, 040114) were tested, with fibroblasts (MRCS), hES derived NPCs and astrocytes serving as controls (see FIGS. 29-33). Dose-response curves for the treatment of NPC, DIPGIV, and DIPGVI cell lines with MI-2-2, Panobinostat, and EPZ6438 are shown in FIG. 29.

[21] = test system: Glioblastoma 040114; experiment: as above; assay type: cell-based, human; conditions: 040114, seven days
Description: as §6

[22] = test system: SU-DIPGIV; experiment: as above; assay type: cell-based, human
Description: as §6

[23] = test system: Glioblastoma 040811; experiment: as above; assay type: cell-based, human; conditions: 040811, seven days
Description: as §6

[24] = test system: fibroblasts (MRCS); experiment: as above; assay type: cell-based, human; conditions: sub-micromolar doses
Description: as §6

[25] = test system: Glioblastoma 070909; experiment: as above; assay type: cell-based, human; conditions: 070909, seven days
Description: as §6

[26] = test system: Glioblastoma 050715; experiment: as above; assay type: cell-based, human; conditions: 050715, seven days
Description: as §6

[27] = test system: hES derived NPCs; experiment: as above; assay type: cell-based, human; conditions: sub-micromolar doses
Description: as §6

[28] = test system: Astrocytes; experiment: as above; assay type: cell-based, human; conditions: sub-micromolar doses
Description: as §6

[29] = test system: Glioblastoma 030613; experiment: as above; assay type: cell-based, human; conditions: 030613, seven days
Description: as §6

[30] = Pharmacokinetic profile of MI-2-2, blood and pons by LC-MS; assay type: in vivo, mice; conditions: 30 mg/kg systemic MI-2-2
Description: as §1
DIPIV xenografts were generated and are monitored monthly for BLI signal prior to randomization into treatment groups.

[31] = test system: DIPGVI xenografts; experiment: DIPGVI xenografts, bioluminescence imaging; assay type: in vivo, mice; conditions: 60 mg/kg daily intraperitoneal, at 4 weeks
Description: as §4, §5

CC1(C)CN=C(N2CCN(c3ncnc4sc(CC(F)(F)F)cc34)CC2)S1 [MI-2-2]
Ki67 % post-treatment [1]: 26.5, 14.4* %
Ki67 % post-treatment [2]: 56.0, 36.1* %
Ki67 % post-treatment [3]: 34.9, 16.0* %
Ki67 % post-treatment [4]: 28.4, 22.5%
Ki67 % post-treatment [5]: 18.2, 10.8* %
Ki67 % post-treatment [6]: 29.6, 27.5%
Ki67 % post-treatment [7]: 11.9, 7.8%
Ki67 % post-treatment [8]: 10.6, 12.1%
Ki67 % post-treatment [9]: 2.4, 4.3%
Ki67 % post-treatment [10]: 30.4, 16.2* %
survival of normal neural precursors (NPC) [11]: highly resistant; also recorded: minimal impact on the survival
survival of fibroblasts (MRCS) [12]: highly resistant; also recorded: minimal impact on the survival
IC50 [13]: 0.01 µM
TUNEL % post-treatment [14]: 14.3, 17.9%
TUNEL % post-treatment [15]: 7.6, 21.4%
TUNEL % post-treatment [16]: 0.4, 0.0%
TUNEL % post-treatment [17]: 3.8, 4.0%
BLI signal fold change in 040114 xenografts [18]: significant reduction in signal fold change
IC50 [19]: 0.0261 µM
IC50 [20]: 0.121 µM
IC50 [21]: 0.0364 µM
IC50 [22]: 0.0934 µM
IC50 [23]: 0.113 µM
depletion of fibroblasts [24]: not depleted at sub-micromolar doses
IC50 [25]: 0.0135 µM
IC50 [26]: 0.0834 µM
depletion of NPCs [27]: not depleted at sub-micromolar doses
depletion of astrocytes [28]: not depleted at sub-micromolar doses
IC50 [29]: 0.00951 µM
In vivo blood-brain barrier (BBB) penetration [30]: penetration was demonstrated
maintenance of therapeutic levels [30]: > 6 h
BLI signal in DIPGVI xenografts [31]: no significant difference in BLI signal
